In patent US20250051283A1, “THERAPEUTIC COMPOUNDS AND METHODS” (priority 2023, published 2025):
“And” between values parts separate entries of the source, which are not always exact repeats. Equal entries are not always repeated.

What was measured:
[1] = tested on: EV-D68 US/MO/14-18947; test: CPE assay (neutral red) with EV-D68 US/MO/14-18947 in R.D. cells; type: cell-based, Enterovirus D68
Method: (§1) Cell lines and viruses. Human rhabdomyosarcoma (R.D., ATCC, CCL-136) cells were maintained at 37° C. in a 5% CO2 atmosphere and cultured in Dulbecco's modified Eagle's medium (DMEM) supplemented with 10% fetal bovine serum (FBS) and 1% penicillin-streptomycin antibiotics. The following reagents were obtained through BEI Resources, NIAID, NIH: Human Enterovirus D68, US/MO/14-18949, NR-49130; Enterovirus D68, US/MO/14-18947, NR-49129; Enterovirus D68, US/IL/14-18952, NR-49131; Enterovirus D68, US/KY/14-18953, NR-49132; Enterovirus D68, US/IL/14-18956, NR-49133.
(§2) Antiviral assays. Cells for antiviral assays were seeded and grown overnight at 37° C. in a 5% CO2 atmosphere for ˜90% confluency the next day. For all infections, cells were washed with PBS containing magnesium and calcium and infected with virus diluted in DMEM with 2% FBS and 30 mM MgCl2. Viruses were incubated for at least 1 h at 33° C. in a 5% CO2 atmosphere, followed by the addition of compound as well as 1% penicillin-streptomycin. For CC50 measurements, the experiment was performed similarly but excluded viral infection. For cytopathic effect (CPE) assays, cells were stained with 66 µg/mL neutral red for 2 h and neutral red uptake was measured at absorbance 540 nm using a Multiskan FC Microplate Photometer (ThermoFisher Scientific). The EC50 and CC50 values were calculated from best-fit dose response curves using GraphPad Prism. For plaque reduction assays, an 1.2% avicel microcrystalline cellulose (FMC BioPolymer, Philadelphia, PA) overlay was used and cells were stained after 3 days as previously described^26.

[2] = tested on: EV-D68 US/MO/14-18947; test: Secondary plaque reduction assay with EV-D68 US/MO/14-18947; type: cell-based, Enterovirus D68
Method: as §1
as §2, with “For CC50 measurements, the experiment was performed similarly but excluded viral infection.” left out, “For plaque reduction assays, an 1.2% avicel microcrystalline cellulose (FMC BioPolymer, Philadelphia, PA) overlay was used and cells were stained after 3 days as previously described^26.” left out

[3] = biological target: EV-D68 2A^pro (Enterovirus D68, UniProt A0A097BW19); test: FRET-based enzymatic assay of EV-D68 2Apro inhibition; type: biochemical; conditions: for IC50: read-out: Enzymatic inhibitory activity IC50
Method: (§3) Protein expression and purification. EV-D68 2A^pro gene from strain US/KY/14-18953 was ordered from Genscript (Piscataway, NJ) in pET28b(+) vector with E. coli codon optimization. 2A^pro gene was subcloned into pE-SUMOstar vector according to the manufacturers protocol. Plasmid encoding WT-2A^pro was transformed into BL21(DE3) competent E. coli cells, and a single colony was picked and used to inoculate 10 mL of L.B. grown supplemented with 50 μg/mL kanamycin at 37° C. at 250 rpm. The 10 mL inoculant was added to 1 L of L.B. with 50 μg/mL kanamycin and grown to an OD600 of 0.8-1.0, cooled to 18° C., then induced using 0.5 mM IPTG. Induced cultures were incubated at 18° C. for an additional 24 h, then harvested and resuspended in lysis buffer (25 mM Tris (pH 7.5); 750 mM NaCl, 2 mM DTT with 0.5 mg/mL lysozyme, 0.5 mM PMSF and 0.02 mg/mL DNase I) and lysed with alternating sonication and French press cycles. The cell debris were removed by centrifugation at 12,000×g for 45 min […]. The supernatant was incubated with Ni-NTA resin for over 2 h at 4° C. on a rotator. The Ni-NTA resin was thoroughly washed with 50 mM imidazole in wash buffer (50 mM Tris (pH 7.5), 150 mM NaCl, and 2 mM DTT); for the SUMO-tagged protein, the protein was directly eluted with 300 mM imidazole; for the nontagged 2A^pro Ni-NTA resin was treated with SUMO Protease 1 to remove the SUMO tag, then 2A^pro was washed off from the column with 10 mM imidazole in wash buffer. The imidazole was removed via dialysis or 10 K molecular weight cut-off centrifugal concentrator spin column. The purity of the protein was confirmed with SDS-PAGE. The protein concentration was determined by classic BCA assay using bovine serum albumin as a standard. EV-D68 3C^pro in pET28b(+) vector was expressed as previously described^10.
(§4) Peptide synthesis. The FRET substrate of EV-D68 2A^pro, Dabcyl-KIRIVNT/GPGFGGE-Edans, was synthesized using the Fmoc solid phase synthesis strategy.
(§5) Enzymatic assays. The reaction buffer contains 50 mM Tris (pH7.0), 150 mM NaCl, 10% Glycerol, and 2 mM DTT, and the reaction was carried out at 30° C. in Cytation 5 imaging reader (Fisher Scientific) with EX360/40-EM460/40 filter. Reactions were monitored every 90 sec. […] The reaction was initiated by adding 20 μM of FRET substrate, and the reaction was monitored for 2 hours and initial velocity was calculated for the first 30 minutes via linear regression.

[4] = biological target: T1, EV-D68 2A^pro (WT-2A^pro, strain US/KY/14-18953, expressed in E. coli BL21(DE3) from pE-SUMOstar vector) (enterovirus D68, UniProt A0A097BW19); test: FRET-based enzymatic assay of EV-D68 2A^pro inhibition (FRET substrate Dabcyl-KIRIVNT/GPGFGGE-Edans); type: biochemical
T1 construct: E. coli-codon-optimised gene, pE-SUMOstar, His-SUMO tag (removed with SUMO protease for nontagged form), E. coli BL21(DE3), Ni-NTA; 7JRE is the C107A mutant
Method: (§6) FIG. 4. […] Key structural variations compared to telaprevir were highlighted in red. Enzymatic inhibitory activity IC50 value was determined in the FRET-based assay. Antiviral EC50 value was determined in the CPE assay with EV-D68 US/MO/14-18947 in R.D. cells. Cytotoxicity CC50 value was determined using the neutral red uptake method in R.D. cells. The results are the mean±standard deviation of two independent experiments with three repeats in each experiment.
as §6, with “5.” for “4.”, “Jun8861” for “telaprevir”
as §3, §4, §5

[5] = Cytotoxicity by neutral red uptake in R.D. cells, no viral infection; type: cell-based, Human; conditions: human, R.D. (rhabdomyosarcoma, ATCC CCL-136) cells, uninfected
Method: as §1, §2

[6] = tested on: R.D. cells; test: as above; type: cell-based, Human
Method: as §1, §2

[7] = CPE assay, EV-D68 US/MO/14-18947 in R.D. cells
[8] = Enterovirus D, EVD68, RD, read-out: Antiviral EC50, CPE assay, EV-D68 US/MO/14-18947 in R.D. cells

SMILES | antiviral activity, in words, relative to the named comparator [1, 7] | enzymatic inhibition, in words, relative to the named comparator [3] | EC50 [1, 8] [nM] | IC50 [4] [nM] | IC50 [3] | other results
CCC(C)[C@H](NC(=O)[C@@H]1[C@H]2CCC[C@H]2CN1C(=O)[C@@H](NC(=O)CC12CC3CC(CC(C3)C1)C2)C(C)(C)C)C(=O)C(=O)NC1CC1 (stereo partly drawn) [Jun11756, (1S,3aR,6aS)-2-((S)-2-(2-((3S,5S,7S)-adamantan-1-yl)acetamido)-3,3-dimethylbutanoyl)-N-((3S,4S)-1-(cyclopropylamino)-4-methyl-1,2-dioxohexan-3-yl)octahydrocyclopenta[c]pyrrole-1-carboxamide] | comparable enzymatic inhibition and antiviral activity as Jun8861 | comparable enzymatic inhibition and antiviral activity as Jun8861 |  |  |  | EC50 [2]: 13.5 nM
CCC[C@H](NC(=O)[C@@H]1[C@H]2CCC[C@H]2CN1C(=O)[C@@H](NC(=O)CC1CCCCC1)C(C)(C)C)C(=O)C(=O)NC1CC1 [Jun8814, (1S,3aR,6aS)-2-((S)-2-(2-cyclohexylacetamido)-3,3-dimethylbutanoyl)-N—((S)-1-(cyclopropylamino)-1,2-dioxohexan-3-yl)octahydrocyclopenta[c]pyrrole-1-carboxamide] |  |  | 160 to 750 | 90 ± 10 | 80 to 140 nM | 
CC(C)(C)C(NC(=O)CC12CC3CC(CC(C3)C1)C2)C(=O)N1CC2CCCC2C1C(=O)NC(Cc1ccccc1)C(=O)C(=O)NC1CC1 [Jun11385, (1S,3aR,6aS)-2-((S)-2-(2-((3S,5S,7S)-adamantan-1-yl)acetamido)-3,3-dimethylbutanoyl)-N—((S)-4-(cyclopropylamino)-3,4-dioxo-1-phenylbutan-2-yl)octahydrocyclopenta[c]pyrrole-1-carboxamide] |  |  |  |  |  | CC50 [5]: 17400 nM
CCC[C@H](NC(=O)[C@@H]1[C@H]2CCC[C@H]2CN1C(=O)[C@@H](NC(=O)CC1CCCC1)C(C)(C)C)C(=O)C(=O)NC1CC1 [Jun971, (1S,3aR,6aS)-2-((S)-2-(2-cyclopentylacetamido)-3,3-dimethylbutanoyl)-N—((S)-1-(cyclopropylamino)-1,2-dioxohexan-3-yl)octahydrocyclopenta[c]pyrrole-1-carboxamide] |  |  | 160 to 750 | 100 ± 10 | 80 to 140 nM | 
CCC[C@H](NC(=O)[C@@H]1[C@H]2CCC[C@H]2CN1C(=O)[C@@H](NC(=O)C=Cc1ccccc1)C(C)(C)C)C(=O)C(=O)NC1CC1 [Jun8813, (1S,3aR,6aS)-2-((S)-2-cinnamamido-3,3-dimethylbutanoyl)-N—((S)-1-(cyclopropylamino)-1,2-dioxohexan-3-yl)octahydrocyclopenta[c]pyrrole-1-carboxamide] | reduced enzymatic inhibition and antiviral activity compared to telaprevir | reduced enzymatic inhibition and antiviral activity compared to telaprevir |  | 760 ± 320 |  | 
CCC[C@H](NC(=O)[C@@H]1[C@H]2CCC[C@H]2CN1C(=O)[C@@H](NC(=O)OCc1ccccc1)C(C)(C)C)C(=O)C(=O)NC1CC1 [Jun7426, Benzyl ((S)-1-((1S,3aR,6aS)-1-(((S)-1-(cyclopropylamino)-1,2-dioxohexan-3-yl)carbamoyl)hexahydrocyclopenta[c]pyrrol-2(1H)-yl)-3,3-dimethyl-1-oxobutan-2-yl)carbamate] | reduced enzymatic inhibition and antiviral activity compared to telaprevir | reduced enzymatic inhibition and antiviral activity compared to telaprevir |  | 760 ± 100 |  | 
CCC[C@H](NC(=O)[C@@H]1[C@H]2CCC[C@H]2CN1C(=O)[C@@H](NC(=O)Cc1ccccc1)C(C)(C)C)C(=O)C(=O)NC1CC1 [Jun8681, (1S,3aR,6aS)—N—((S)-1-(cyclopropylamino)-1,2-dioxohexan-3-yl)-2-((S)-3,3-dimethyl-2-(2-phenylacetamido)butanoyl)octahydrocyclopenta[c]pyrrole-1-carboxamide] | reduced enzymatic inhibition and antiviral activity compared to telaprevir | reduced enzymatic inhibition and antiviral activity compared to telaprevir |  | 250 ± 20 |  | 
CCC[C@H](NC(=O)[C@@H]1[C@H]2CCC[C@H]2CN1C(=O)[C@@H](NC(=O)CC1CCC(F)(F)CC1)C(C)(C)C)C(=O)C(=O)NC1CC1 [Jun975, (1S,3aR,6aS)—N—((S)-1-(cyclopropylamino)-1,2-dioxohexan-3-yl)-2-((S)-2-(2-(4,4-difluorocyclohexyl)acetamido)-3,3-dimethylbutanoyl)octahydrocyclopenta[c]pyrrole-1-carboxamide] |  |  | 160 to 750 | 140 ± 10 | 80 to 140 nM | 
CCC[C@H](NC(=O)[C@@H]1[C@H]2CCC[C@H]2CN1C(=O)[C@@H](NC(=O)CC12CC3CC(CC(C3)C1)C2)C(C)(C)C)C(=O)C(=O)NC1CC1 [Jun8861] |  |  | 160 to 750 |  | 80 to 140 nM and 80 nM | EC50 ([1]; read-out: Antiviral EC50, CPE assay, EV-D68 US/MO/14-18947 in R.D. cells): 160 nM; CC50 [6]: 36200 nM
CC(C)(C)[C@H](NC(=O)CC12CC3CC(CC(C3)C1)C2)C(=O)N1C[C@@H]2CCC[C@@H]2[C@H]1C(=O)N[C@H](C(=O)C(=O)NC1CC1)C1CCCC1 [Jun11808, (1S,3aR,6aS)-2-((S)-2-(2-((3S,5S,7S)-adamantan-1-yl)acetamido)-3,3-dimethylbutanoyl)-N—((S)-1-cyclopentyl-3-(cyclopropylamino)-2,3-dioxopropyl)octahydrocyclopenta[c]pyrrole-1-carboxamide] | comparable enzymatic inhibition and antiviral activity as Jun8861 | comparable enzymatic inhibition and antiviral activity as Jun8861 |  | 200 ± 70 |  | 
